Data: patent publication US20200085789A1, “USE OF A PROTEASOME INHIBITOR FOR THE TREATMENT OF CENTRAL NERVOUS SYSTEM (CNS) CANCERS” (Celgene International II Sàrl, priority 2017, published 2020)

Assay: Adverse events and dose-limiting toxicity (NCI-CTCAE v 4.03), MRZ ± BEV in recurrent grade IV malignant glioma patients
Type: in vivo, human
Source text: An adverse event (AE) is any noxious, unintended, or untoward medical occurrence that may appear or worsen in a subject during the course of a study. […] Any worsening (i.e., any clinically significant adverse change in the frequency or intensity of a pre-existing condition) should be considered an AE.
The severity/intensity of AEs will be graded based upon the subject's symptoms according to the current active minor version of the Common Terminology Criteria for Adverse Events ( ).

[1] = treated with MRZ 0.8 mg/m^2 + BEV (N = 27)

## C[C@@]12OC(=O)[C@]1([C@@H](O)[C@@H]1C=CCCC1)NC(=O)[C@@H]2CCCl [MRZ, marizomib]
Part 1 N = 36, Part 2 N = 30
  Fall: patients, worst Grade 2: 1
  Fatigue: patients, Total: 20
  Fatigue: patients, worst Grade 1: 8
  Fatigue: patients, worst Grade 2: 11
  Fatigue: patients, worst Grade 3: 2
  Hallucination: patients, Total: 12
  Hallucination: patients, worst Grade 1: 6
  Hallucination: patients, worst Grade 2: 4
  Hallucination: patients, worst Grade 3: 1
  Hallucination: patients, worst Grade 4: 1
  Headache: patients, Total: 14
  Headache: patients, worst Grade 1: 10
  Headache: patients, worst Grade 2: 3
  Headache: patients, worst Grade 3: 1
  Hyperglycemia: patients, Total: 7
  Hyperglycemia: patients, worst Grade 1: 2
  Hyperglycemia: patients, worst Grade 2: 4
  Hyperglycemia: patients, worst Grade 3: 1−
  Hypertension: patients, Total: 4
  Hypertension: patients, worst Grade 1: 1
  Hypertension: patients, worst Grade 2: 1
  Hypertension: patients, worst Grade 3: 2
  Hypokalemia: patients, Total: 9
  Hypokalemia: patients, worst Grade 1: 7
  Hypokalemia: patients, worst Grade 2: 2
  Infusion Site Reaction (includes edema, pain, phlebitis, redness): patients, Total: 5
  Infusion Site Reaction: patients, worst Grade 1: 3
  Infusion Site Reaction: patients, worst Grade 2: 2
  Insomnia: patients, Total: 1.
  Insomnia: patients, worst Grade 1: 7
  Insomnia: patients, worst Grade 2: 5
  Insomnia: patients, worst Grade 3: 1
  Nausea: patients, Total: 11
  Nausea: patients, worst Grade 1: 7
  Nausea: patients, worst Grade 2: 2
  Nausea: patients, worst Grade 3: 2
  Platelet Count Decreased: patients, Total: 7
  Platelet Count Decreased: patients, worst Grade 1: 7
  Vomiting: patients, Total: 10
  Vomiting: patients, worst Grade 1: 8
  Vomiting: patients, worst Grade 3: 2
Phase 1
  marizomib-related adverse events ≥3: confusional state: 3
  marizomib-related adverse events ≥3: headache: 3
  patients with marizomib-related serious adverse events: Four
Phase 2 monotherapy
  Grade 4 serious adverse event (hallucination, MRZ-related): one
  treatment-related Grade ≥3 AEs in two or more patients: fatigue, hallucination, lethargy
Phase 2 monotherapy, listed as marizomib
  Grade 4 serious adverse event (hallucination, MRZ-related): One
Pts on MRZ+BEV
  Anaemia: # Patients, AE related to the labelled drug(s): 6
  Anxiety: # Patients, AE related to the labelled drug(s): 0
  Aphasia: # Patients, AE related to the labelled drug(s): 0
  Appendicitis Perforated: # Patients, AE related to the labelled drug(s): 0
  Asthenia: # Patients, AE related to the labelled drug(s): 0
  Ataxia: # Patients, AE related to the labelled drug(s): 6
  Confusional State: # Patients, AE related to the labelled drug(s): 6
  Constipation: # Patients, AE related to the labelled drug(s): 4
  Convulsion: # Patients, AE related to the labelled drug(s): 0
  Delusion: # Patients, AE related to the labelled drug(s): 1
  Depressed Level of Consciousness: # Patients, AE related to the labelled drug(s): 0
  Diarrhoea: # Patients, AE related to the labelled drug(s): 9
  Dizziness: # Patients, AE related to the labelled drug(s): 8
  Dysarthria: # Patients, AE related to the labelled drug(s): 1
  Dysphagia: # Patients, AE related to the labelled drug(s): 0
  Dysphonia: # Patients, AE related to the labelled drug(s): 0
  Dyspnoea: # Patients, AE related to the labelled drug(s): 0
  Ear Infection: # Patients, AE related to the labelled drug(s): 0
  Embolism: # Patients, AE related to the labelled drug(s): 0
  Epistaxis: # Patients, AE related to the labelled drug(s): 0
  Falls: # Patients, AE related to the labelled drug(s): 3
  Fatigue: # Patients, AE related to the labelled drug(s): 1
  Fracture of Femur: # Patients, AE related to the labelled drug(s): 0
  Haemorrhage Intracranial: # Patients, AE related to the labelled drug(s): 0
  Hallucination: # Patients, AE related to the labelled drug(s): 11
  Headache: # Patients, AE related to the labelled drug(s): 5
  Hemiparesis: # Patients, AE related to the labelled drug(s): 0
  Hyperglycemia: # Patients, AE related to the labelled drug(s): 0
  Hypertension: # Patients, AE related to the labelled drug(s): 0
  Hypokalemia: # Patients, AE related to the labelled drug(s): 0
  Hyponatremia: # Patients, AE related to the labelled drug(s): 1
  Hypotension: # Patients, AE related to the labelled drug(s): 0
  Infusion Site Pain: # Patients, AE related to the labelled drug(s): 6
  Insomnia: # Patients, AE related to the labelled drug(s): 1
  Lymphocyte Count Decreased: # Patients, AE related to the labelled drug(s): 0
  Muscular Weakness: # Patients, AE related to the labelled drug(s): 2
  Nausea: # Patients, AE related to the labelled drug(s): 19
  Optic Nerve Disorder: # Patients, AE related to the labelled drug(s): 0
  Pyramidal Tract Syndrome: # Patients, AE related to the labelled drug(s): 0
  Tumor Metastasis: # Patients, AE related to the labelled drug(s): 0
  Vision Blurred: # Patients, AE related to the labelled drug(s): 3
  Vomiting: # Patients, AE related to the labelled drug(s): 12
range
  time of onset of CNS adverse events: from the day of treatment to six days post-marizomib infusion
[1]
  Anaemia related to the labelled drug(s): (18.5%)
  Anaemia related to the labelled drug(s), patients: 5
  Ataxia related to the labelled drug(s): (25.9%)
  Ataxia related to the labelled drug(s), patients: 7
  Confusional state related to the labelled drug(s): (25.9%)
  Confusional state related to the labelled drug(s), patients: 7
  Constipation related to the labelled drug(s): (18.5%)
  Constipation related to the labelled drug(s), patients: 5
  Diarrhoea related to the labelled drug(s): (29.6%)
  Diarrhoea related to the labelled drug(s), patients: 8
  Dizziness related to the labelled drug(s): (29.6%)
  Dizziness related to the labelled drug(s), patients: 8
  Dysphonia related to the labelled drug(s): (3.7%)
  Dysphonia related to the labelled drug(s), patients: 1
  Epistaxis related to the labelled drug(s): (0.0%)
  Epistaxis related to the labelled drug(s), patients: 0
  Fall related to the labelled drug(s): (11.1%)
  Fall related to the labelled drug(s), patients: 3
  Fatigue related to the labelled drug(s): (70.4%)
  Fatigue related to the labelled drug(s), patients: 19
  Hallucination related to the labelled drug(s): (44.4%)
  Hallucination related to the labelled drug(s), patients: 12
  Headache related to the labelled drug(s): (44.4%)
  Headache related to the labelled drug(s), patients: 12
  Hypertension related to the labelled drug(s): (3.7%)
  Hypertension related to the labelled drug(s), patients: 1
  Infusion site pain related to the labelled drug(s): (14.8%)
  Infusion site pain related to the labelled drug(s), patients: 4
  Muscular weakness related to the labelled drug(s): (11.1%)
  Muscular weakness related to the labelled drug(s), patients: 3
  Nausea related to the labelled drug(s): (63.0%)
  Nausea related to the labelled drug(s), patients: 17
  Platelet count decreased related to the labelled drug(s): (7.4%)
  Platelet count decreased related to the labelled drug(s), patients: 2
  Stomatitis related to the labelled drug(s): (11.1%)
  Stomatitis related to the labelled drug(s), patients: 3
  Upper-airway cough syndrome related to the labelled drug(s): (0.0%)
  Upper-airway cough syndrome related to the labelled drug(s), patients: 0
  Vomiting related to the labelled drug(s): (55.6%)
  Vomiting related to the labelled drug(s), patients: 15
